Tests used:
Experiment in all cases: relative viability (nuclei count vs DMSO), 5 days (fraction); higher = more cells survive
[1] = system: NCI-H2023
Outline: (§1)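 Lung cancer cell lines were seeded in 1536-well plates and dosed by pin tool the next day, with either a single drug or a fixed anchor-drug dose combined with five library-drug doses (not always all listed) spaced in √10 steps. Five days later, one step fixed the cells and stained their nuclei (final 0.05% Triton X-100, 1% formaldehyde, 1 ug/ml Hoechst), and nuclei were counted on 4× images. Relative viability is the nuclei count in treated wells divided by the count in vehicle wells, and each value is the median of duplicate plates.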

[2] = system: NCI-H358
Outline: as §1

[3] = system: NCI-H1975
Outline: as §1

[4] = system: COR-L 105
Outline: as §1

[5] = system: NCI-H1944
Outline: as §1

[6] = system: LOU-NH91
Outline: as §1

[7] = system: NCI-H1993
Outline: as §1

[8] = system: LXF-289
Outline: as §1

[9] = system: NCI-H1915
Outline: as §1

[10] = system: HCC-44
Outline: as §1

[11] = system: LCLC-103H
Outline: as §1

[12] = system: SW 900
Outline: as §1

[13] = system: NCI-H1793
Outline: as §1

[14] = system: NCI-H2170
Outline: as §1

[15] = system: NCI-H520
Outline: as §1

[16] = system: NCI-H1792
Outline: as §1

[17] = system: HCC-827
Outline: as §1

[18] = system: A-427
Outline: as §1

[19] = system: H3255
Outline: as §1

[20] = system: SK-MES-1
Outline: as §1

[21] = system: NCI-H522
Outline: as §1

[22] = system: SW 1573
Outline: as §1

[23] = system: NCI-H2087
Outline: as §1

**Q.** `Cc1cn(-c2cc(NC(=O)c3ccc(C)c(Nc4nccc(-c5cccnc5)n4)c3)cc(C(F)(F)F)c2)cn1` [Nilotinib] + O=C(c1cc(Cc2n[nH]c(=O)c3ccccc23)ccc1F)N1CCN(C(=O)C2CC2)CC1 [Olaparib] (partner 8 µM) was tested. Which relative viability ([1]; first compound 0.001 µM) did it give?
**A.** 0.429

**Q.** What about the relative viability ([1]; first compound 0.003162 µM) of the same compound?
**A.** 0.486

**Q.** What about the relative viability ([1]; first compound 0.01 µM) of the same compound?
**A.** 0.599

**Q.** And the relative viability ([1]; first compound 0.03162 µM)?
**A.** 0.361

**Q.** And the relative viability ([1]; first compound 0.1 µM)?
**A.** 0.394

**Q.** What about the relative viability ([2]; first compound 0.001 µM) of the same compound?
**A.** 0.546

**Q.** What about the relative viability ([2]; first compound 0.003162 µM) of the same compound?
**A.** 0.721

**Q.** And the relative viability ([2]; first compound 0.01 µM)?
**A.** 0.813

**Q.** And the relative viability ([2]; first compound 0.03162 µM)?
**A.** 0.52

**Q.** And the relative viability ([2]; first compound 0.1 µM)?
**A.** 0.539

**Q.** What about the relative viability ([3]; first compound 0.001 µM) of the same compound?
**A.** 0.553

**Q.** And the relative viability ([3]; first compound 0.003162 µM)?
**A.** 0.809

**Q.** And the relative viability ([3]; first compound 0.01 µM)?
**A.** 0.786

**Q.** What about the relative viability ([3]; first compound 0.03162 µM) of the same compound?
**A.** 0.491

**Q.** What about the relative viability ([3]; first compound 0.1 µM) of the same compound?
**A.** 0.63

**Q.** And the relative viability ([4]; first compound 0.001 µM)?
**A.** 0.629

**Q.** And the relative viability ([4]; first compound 0.003162 µM)?
**A.** 0.688

**Q.** What about the relative viability ([4]; first compound 0.01 µM) of the same compound?
**A.** 0.645

**Q.** What about the relative viability ([4]; first compound 0.03162 µM) of the same compound?
**A.** 0.636

**Q.** And the relative viability ([4]; first compound 0.1 µM)?
**A.** 1.09

**Q.** And the relative viability ([5]; first compound 0.001 µM)?
**A.** 0.379

**Q.** And the relative viability ([5]; first compound 0.003162 µM)?
**A.** 0.397

**Q.** What about the relative viability ([5]; first compound 0.01 µM) of the same compound?
**A.** 0.462

**Q.** What about the relative viability ([5]; first compound 0.03162 µM) of the same compound?
**A.** 0.435

**Q.** What about the relative viability ([5]; first compound 0.1 µM) of the same compound?
**A.** 0.45

**Q.** And the relative viability ([6]; first compound 0.001 µM)?
**A.** 0.877

**Q.** And the relative viability ([6]; first compound 0.003162 µM)?
**A.** 1.05

**Q.** What about the relative viability ([6]; first compound 0.01 µM) of the same compound?
**A.** 1.09

**Q.** What about the relative viability ([6]; first compound 0.03162 µM) of the same compound?
**A.** 0.94

**Q.** And the relative viability ([6]; first compound 0.1 µM)?
**A.** 0.997

**Q.** What about the relative viability ([7]; first compound 0.001 µM) of the same compound?
**A.** 0.957

**Q.** What about the relative viability ([7]; first compound 0.003162 µM) of the same compound?
**A.** 1.1

**Q.** What about the relative viability ([7]; first compound 0.01 µM) of the same compound?
**A.** 1.75

**Q.** What about the relative viability ([7]; first compound 0.03162 µM) of the same compound?
**A.** 1.01

**Q.** What about the relative viability ([7]; first compound 0.1 µM) of the same compound?
**A.** 1.23

**Q.** What about the relative viability ([8]; first compound 0.001 µM) of the same compound?
**A.** 1.07

**Q.** What about the relative viability ([8]; first compound 0.003162 µM) of the same compound?
**A.** 1.37

**Q.** And the relative viability ([8]; first compound 0.01 µM)?
**A.** 1.26

**Q.** And the relative viability ([8]; first compound 0.03162 µM)?
**A.** 1

**Q.** And the relative viability ([8]; first compound 0.1 µM)?
**A.** 1.06

**Q.** And the relative viability ([9]; first compound 0.003162 µM)?
**A.** 0.267

**Q.** What about the relative viability ([9]; first compound 0.01 µM) of the same compound?
**A.** 0.244

**Q.** And the relative viability ([9]; first compound 0.03162 µM)?
**A.** 0.255

**Q.** And the relative viability ([9]; first compound 0.1 µM)?
**A.** 0.187

**Q.** What about the relative viability ([10]; first compound 0.001 µM) of the same compound?
**A.** 0.895

**Q.** And the relative viability ([10]; first compound 0.003162 µM)?
**A.** 0.97

**Q.** And the relative viability ([10]; first compound 0.01 µM)?
**A.** 0.976

**Q.** What about the relative viability ([10]; first compound 0.1 µM) of the same compound?
**A.** 0.983

**Q.** And the relative viability ([11]; first compound 0.001 µM)?
**A.** 0.761

**Q.** What about the relative viability ([11]; first compound 0.003162 µM) of the same compound?
**A.** 0.903

**Q.** And the relative viability ([11]; first compound 0.01 µM)?
**A.** 0.969

**Q.** And the relative viability ([11]; first compound 0.03162 µM)?
**A.** 0.749

**Q.** What about the relative viability ([11]; first compound 0.1 µM) of the same compound?
**A.** 0.8

**Q.** And the relative viability ([12]; first compound 0.003162 µM)?
**A.** 0.916

**Q.** And the relative viability ([12]; first compound 0.01 µM)?
**A.** 0.965

**Q.** And the relative viability ([12]; first compound 0.03162 µM)?
**A.** 0.77

**Q.** What about the relative viability ([12]; first compound 0.1 µM) of the same compound?
**A.** 0.776

**Q.** What about the relative viability ([13]; first compound 0.001 µM) of the same compound?
**A.** 0.863

**Q.** And the relative viability ([13]; first compound 0.003162 µM)?
**A.** 0.822

**Q.** What about the relative viability ([13]; first compound 0.01 µM) of the same compound?
**A.** 1.13

**Q.** And the relative viability ([13]; first compound 0.03162 µM)?
**A.** 0.706

**Q.** And the relative viability ([13]; first compound 0.1 µM)?
**A.** 0.677

**Q.** And the relative viability ([14]; first compound 0.001 µM)?
**A.** 0.597

**Q.** What about the relative viability ([14]; first compound 0.003162 µM) of the same compound?
**A.** 0.662

**Q.** What about the relative viability ([14]; first compound 0.01 µM) of the same compound?
**A.** 0.647

**Q.** What about the relative viability ([14]; first compound 0.03162 µM) of the same compound?
**A.** 0.574

**Q.** And the relative viability ([14]; first compound 0.1 µM)?
**A.** 0.614

**Q.** And the relative viability ([15]; first compound 0.001 µM)?
**A.** 0.321

**Q.** What about the relative viability ([15]; first compound 0.003162 µM) of the same compound?
**A.** 0.293

**Q.** And the relative viability ([15]; first compound 0.01 µM)?
**A.** 0.305

**Q.** What about the relative viability ([15]; first compound 0.03162 µM) of the same compound?
**A.** 0.316

**Q.** What about the relative viability ([15]; first compound 0.1 µM) of the same compound?
**A.** 0.294

**Q.** What about the relative viability ([16]; first compound 0.001 µM) of the same compound?
**A.** 0.312

**Q.** What about the relative viability ([16]; first compound 0.003162 µM) of the same compound?
**A.** 0.535

**Q.** What about the relative viability ([16]; first compound 0.01 µM) of the same compound?
**A.** 0.456

**Q.** And the relative viability ([16]; first compound 0.03162 µM)?
**A.** 0.258

**Q.** And the relative viability ([16]; first compound 0.1 µM)?
**A.** 0.319

**Q.** And the relative viability ([17]; first compound 0.001 µM)?
**A.** 0.637

**Q.** What about the relative viability ([17]; first compound 0.003162 µM) of the same compound?
**A.** 0.741

**Q.** And the relative viability ([17]; first compound 0.03162 µM)?
**A.** 0.49

**Q.** What about the relative viability ([17]; first compound 0.1 µM) of the same compound?
**A.** 0.689

**Q.** And the relative viability ([18]; first compound 0.001 µM)?
**A.** 0.76

**Q.** What about the relative viability ([18]; first compound 0.003162 µM) of the same compound?
**A.** 0.874

**Q.** And the relative viability ([18]; first compound 0.01 µM)?
**A.** 0.86

**Q.** And the relative viability ([18]; first compound 0.03162 µM)?
**A.** 0.804

**Q.** What about the relative viability ([18]; first compound 0.1 µM) of the same compound?
**A.** 0.936

**Q.** And the relative viability ([19]; first compound 0.001 µM)?
**A.** 0.533

**Q.** What about the relative viability ([19]; first compound 0.003162 µM) of the same compound?
**A.** 0.561

**Q.** What about the relative viability ([19]; first compound 0.01 µM) of the same compound?
**A.** 0.572

**Q.** What about the relative viability ([19]; first compound 0.03162 µM) of the same compound?
**A.** 0.474

**Q.** And the relative viability ([19]; first compound 0.1 µM)?
**A.** 0.501

**Q.** What about the relative viability ([20]; first compound 0.001 µM) of the same compound?
**A.** 0.611

**Q.** What about the relative viability ([20]; first compound 0.003162 µM) of the same compound?
**A.** 0.696

**Q.** What about the relative viability ([20]; first compound 0.01 µM) of the same compound?
**A.** 0.778

**Q.** What about the relative viability ([20]; first compound 0.03162 µM) of the same compound?
**A.** 0.573

**Q.** And the relative viability ([20]; first compound 0.1 µM)?
**A.** 0.432

**Q.** What about the relative viability ([21]; first compound 0.01 µM) of the same compound?
**A.** 0.66

**Q.** And the relative viability ([21]; first compound 0.03162 µM)?
**A.** 0.625

**Q.** And the relative viability ([21]; first compound 0.1 µM)?
**A.** 0.565

**Q.** What about the relative viability ([22]; first compound 0.001 µM) of the same compound?
**A.** 0.494

**Q.** What about the relative viability ([22]; first compound 0.003162 µM) of the same compound?
**A.** 0.614

**Q.** And the relative viability ([22]; first compound 0.01 µM)?
**A.** 0.662

**Q.** And the relative viability ([22]; first compound 0.03162 µM)?
**A.** 0.364

**Q.** And the relative viability ([22]; first compound 0.1 µM)?
**A.** 0.423

**Q.** What about the relative viability ([23]; first compound 0.001 µM) of the same compound?
**A.** 0.529

**Q.** What about the relative viability ([23]; first compound 0.003162 µM) of the same compound?
**A.** 0.672

**Q.** What about the relative viability ([23]; first compound 0.01 µM) of the same compound?
**A.** 0.592

**Q.** What about the relative viability ([23]; first compound 0.03162 µM) of the same compound?
**A.** 0.552

**Q.** What about the relative viability ([23]; first compound 0.1 µM) of the same compound?
**A.** 0.514

Reference: the supplement of paper PMC10307832
